# Biological target: T1, human MMP14 (Homo sapiens, UniProt P50281)
# T1 construct: human MMP14 (Uniprot P50281), amino acids 112–284; made in house; host or cells: E. coli
# Experiment: Selectivity assay MMP14
# Assay type: biochemical
# Procedure: All biochemical assays were performed at room temperature in 384-well plates in a total volume of 25.25 μl per well. Test compounds were dissolved in 90% (v/v) DMSO/water. For the assays, 250 nl of compound solution was added per well, followed by addition of 12.5 μl protease solution. After 70 min of pre-incubation at room temperature, the reactions were started by addition of 12.5 μl substrate solution and followed either by measuring fluorescence intensity (rhodamine 110-based substrates) or by fluorescence lifetime (PT14-based substrates). The effect of compound on enzymatic activity was obtained from the linear part of the progress curves and determined after 1 h (t=60 min). The final compound concentrations ranged from 100 μM to 1 nM.
# Matrix metalloproteinases. Human MMP1 (Uniprot P03956), amino acids 1–469, expressed in and purified from stable transfected C127 cells; human MMP2 (Uniprot P08253), amino acids 1–660, expressed in and purified from insect cells (baculovirus expression system); human MMP8 (Uniprot P22894), amino acids 100–262, expressed in and purified from E. coli; human MMP9 (Uniprot P14780), amino acids 1–707, expressed in and purified from stable transfected 293 cells; human MMP12 (Uniprot P39900), amino acids 101–268, expressed in and purified from E. coli; human MMP13 (Uniprot P45452), amino acids 103–274, expressed in and purified from E. coli; human MMP14 (Uniprot P50281), amino acids 112–284, expressed in and purified from E. coli; human ADAM17 (Uniprot P78536), amino acids 1–670, expressed in and purified from insect cells (baculovirus expression system); substrate: Ac-C(PT14)-[…]-NH2 purchased from Biosyntan (product number 8069); enzyme concentrations: 3 nM (MMP1), 1 nM (MMP2), 3 nM (MMP8), 0.1 nM (MMP9), 0.5 nM (MMP12), 0.13 nM (MMP13), 0.005 nM (MMP14), 30 nM (ADAM17); substrate concentration: 0.8 μM; assay buffer: 100 mM Tris, pH 7.4, 100 mM NaCl, 10 mM CaCl2, 10 μM ZnCl2, 0.075% (v/v) Brij35.
row,IC50 [µM],Structure (SMILES)
1,11 ± 1,"COCc1ccccc1NCc1ccc([C@@H]2[C@H](O)CCCc3cncn32)c(-c2ccccc2Cl)c1 [CSN5i-2e, (5R,6R)-5-(2′-chloro-5-(((2-(methoxymethyl)phenyl)amino)methyl)-[1,1′-biphenyl]-2-yl)-6,7,8,9-tetrahydro-5H-imidazo[1,5-a]azepin-6-ol]"
2,15.4 ± 0.02,"COCc1ccccc1NCc1ccc([C@H]2[C@@H](O)CCCc3cncn32)c(-c2ccccc2Cl)c1 [CSN5i-2, (5S,6S)-5-(2′-chloro-5-(((2-(methoxymethyl)phenyl)amino)methyl)-[1,1′-biphenyl]-2-yl)-6,7,8,9-tetrahydro-5H-imidazo[1,5-a]azepin-6-ol]"

row,Structure (SMILES),IC50 [µM]
1,"CC(C)n1nc(C(F)F)cc1C(=O)Nc1ccc([C@H]2[C@@H](O)CCCc3cncn32)c(-c2ccccc2)c1 [CSN5i-3, 3-(Difluoromethyl)-N-(6-((5S,6S)-6-hydroxy-6,7,8,9-tetrahydro-5H-imidazo[1,5-a]azepin-5-yl)-[1,1′-biphenyl]-3-yl)-1-isopropyl-1H-pyrazole-5-carboxamide]",4.6 ± 0.5
